Consider 42 compounds from patent US6140368A, “Naphthols useful in antiviral methods” (The Regents of the University of California, priority 1998, dated 2000).

The first experiment deals with HIV reverse transcriptase (Human immunodeficiency virus type 1 group M subtype B, UniProt P03366). The experiment in a line: Reverse transcriptase scintillation proximity assay (Example 4, Table 2). The experiment is classed as biochemical. As to conditions: 10 μM inhibitor; relative to dimethyl sulfoxide = 100%; 3 min, 10 µM. The procedure: Reverse transcriptase ("RT") activity is measured using a scintillation proximity assay kit available from Amersham Life Sciences, Inc., which uses a biotin/streptavidin bead capture system. RNA-dependent polymerase activity is measured using purified […] and a synthetic 17mer/50mer RNA-DNA template-primer containing biotin at the 5' end of the DNA. The template-primer, buffer, dNTP, and inhibitor are incubated for 10 minutes at 37° C. before the RT is added. The final 100 μl reaction mixture contains: 39 nm of template primer, buffer (40 mM tris HCl at pH 8.0, 10 mM MgCl2, 60 mM KCl, 10 mM dithiothreitol); 75 nM of each dNTP except dTTP; 25 nM dTTP and 35 nM tritium labeled d*TTP; 10 μM inhibitor; and 1.0-2.0 μg of RT. After three minute incubation, the reaction is quenched with 40 μl of 0.56M EDTA. Then 10 μl of streptavidin SPA beads (in suspension) are added and incubated at 37° C. for 10 minutes. Finally, 850 μl of a buffer containing 10 mM Tris HCl pH 7.4 and 0.15M NaCl is added. The signal is produced by biotinylated polymers incorporating d*TTP binding to the streptavidin beads which stimulate the scintillant. The amount of d*TTP incorporated in the polymer is measured with a scintillation counter.
Compounds showing good inhibition will give a low number of counts/min (cpm). This number is related to a standard, dimethyl sulfoxide, which is given an arbitrary 100% relative activity. All cpm data in a single run are given a percent of this standard.
In general terms: Scintillation proximity formats need no separation of bound from free tracer.
On to `O=C(O)c1ccc(N=Nc2c(S(=O)(=O)O)cc3cc(NC(=O)c4ccc(C(=O)Nc5ccc6c(O)c(N=Nc7ccc(C(=O)O)cc7)c(S(=O)(=O)O)cc6c5)cc4)ccc3c2O)cc1` [Compound 162], for which the “% RT activity remaining at 10 μM” value came to 5.9%.

Still in this experiment, the particulars now being: 0.05 h, 10 μM inhibitor; relative to dimethyl sulfoxide = 100%; read-out: % RT activity remaining at 10 μM.
The remaining activity is the signal under treatment as a percentage of the control signal. With `O=C(O)CCCc1ccc(N=Nc2c(S(=O)(=O)O)cc3cc(Nc4c(Nc5ccc6c(O)c(N=Nc7ccc(CCCC(=O)O)cc7)c(S(=O)(=O)O)cc6c5)c(=O)c4=O)ccc3c2O)cc1` [Compound 189], the remaining activity at 10 µM came out at 1%.

Consider `O=C(O)CCc1ccc(N=Nc2c(S(=O)(=O)O)cc3cc(Nc4c(Nc5ccc6c(O)c(N=Nc7ccc(CCC(=O)O)cc7)c(S(=O)(=O)O)cc6c5)c(=O)c4=O)ccc3c2O)cc1` [Compound 188], for which the remaining activity at 10 µM came out at 0.3%.

With `O=C(O)Cc1ccc(N=Nc2c(S(=O)(=O)O)cc3cc(NC(=O)c4cc(O)cc(C(=O)Nc5ccc6c(O)c(N=Nc7ccc(CC(=O)O)cc7)c(S(=O)(=O)O)cc6c5)n4)ccc3c2O)cc1` [Compound 147], the remaining activity at 10 µM turned out to be 0.3%.

`O=C(Nc1ccc2c(O)cccc2c1)Nc1ccc2c(O)cc(S(=O)(=O)O)cc2c1` [Compound 6]: the remaining activity at 10 µM was found to be 84%.

In the case of `O=C(Nc1ccc2c(O)cc(S(=O)(=O)O)cc2c1)Nc1ccc2cc(S(=O)(=O)O)cc(O)c2c1` [Compound 9], the remaining activity at 10 µM is 75%.

Consider `O=C(Nc1ccc2c(O)cc(S(=O)(=O)O)cc2c1)c1cc(O)cc(C(=O)Nc2ccc3c(O)cc(S(=O)(=O)O)cc3c2)n1` [Compound 145], for which the remaining activity at 10 µM is 47%.

Turning to `COC(=O)c1cc(NC(=O)Nc2ccc3cc(S(=O)(=O)O)cc(O)c3c2)cc(C(=O)OC)c1` [Compound 27], the remaining activity at 10 µM amounted to 80%.

Regarding `CC(=O)Nc1ccc2c(OC(C)=O)cc(S(=O)(=O)O)cc2c1` [Compound 22], the remaining activity at 10 µM amounted to 100%.

For `O=C(O)/C=C/c1ccc(N=Nc2c(S(=O)(=O)O)cc3cc(NC(=O)c4cc(=O)cc(C(=O)Nc5ccc6c(O)c(N=Nc7ccc(/C=C/C(=O)O)cc7)c(S(=O)(=O)O)cc6c5)o4)ccc3c2O)cc1` [Compound 137], the remaining activity at 10 µM stood at 0.53%.

Regarding `COC(=O)c1ccccc1NC(=O)Nc1ccc2cc(S(=O)(=O)O)cc(O)c2c1` [Compound 24], the remaining activity at 10 µM was found to be 90%.

For `O=C1c2ccccc2C(=O)N1c1ccc2c(O)cc(S(=O)(=O)O)cc2c1` [Compound 23], the remaining activity at 10 µM came to 100%.

With `O=C(Nc1ccc2c(O)c(N=Nc3cc(F)c(F)c(C(=O)O)c3F)c(S(=O)(=O)O)cc2c1)c1cccc(C(=O)Nc2ccc3c(O)c(N=Nc4cc(F)c(F)c(C(=O)O)c4F)c(S(=O)(=O)O)cc3c2)n1` [Compound 126], the remaining activity at 10 µM came to 0.16%.

For `COC(=O)c1cc(NC(=O)Nc2ccc3c(S(=O)(=O)O)cc(S(=O)(=O)O)cc3c2)cc(C(=O)OC)c1` [Compound 26], the remaining activity at 10 µM was determined as 88%.

Take `O=C(O)c1cccc(N=Nc2c(S(=O)(=O)O)cc3cc(NC(=O)c4ccc(C(=O)Nc5ccc6c(O)c(N=Nc7cccc(C(=O)O)c7)c(S(=O)(=O)O)cc6c5)cc4)ccc3c2O)c1` [Compound 170]: the remaining activity at 10 µM came to 0.1%.

On to `O=C(Nc1ccc2c(O)cc(S(=O)(=O)O)cc2c1)Nc1cccc2ccc(S(=O)(=O)O)cc12` [Compound 10], for which the remaining activity at 10 µM amounted to 88%.

For `O=C(O)/C=C/c1ccc(N=Nc2c(S(=O)(=O)O)cc3cc(NC(=O)c4cccc(C(=O)Nc5ccc6c(O)c(N=Nc7ccc(/C=C/C(=O)O)cc7)c(S(=O)(=O)O)cc6c5)n4)ccc3c2O)cc1` [Compound 123], the remaining activity at 10 µM was 0.2%.

As for `Cc1cc(C(=O)O)ccc1N=Nc1c(S(=O)(=O)O)cc2cc(Nc3c(Nc4ccc5c(O)c(N=Nc6ccc(C(=O)O)cc6C)c(S(=O)(=O)O)cc5c4)c(=O)c3=O)ccc2c1O` [Compound 192], the remaining activity at 10 µM is 0.3%.

Regarding `COc1ccc(N=Nc2c(S(=O)(=O)O)cc3cc(NC(=O)c4ccc(C(=O)Nc5ccc6c(O)c(N=Nc7ccc(OC)cc7)c(S(=O)(=O)O)cc6c5)cc4)ccc3c2O)cc1` [Compound 176], the remaining activity at 10 µM is 60%.

Consider `O=C(O)/C=C/c1ccc(N=Nc2c(S(=O)(=O)O)cc3cc(NC(=O)c4cc(O)cc(C(=O)Nc5ccc6c(O)c(N=Nc7ccc(/C=C/C(=O)O)cc7)c(S(=O)(=O)O)cc6c5)n4)ccc3c2O)cc1` [Compound 151], for which the remaining activity at 10 µM turned out to be 0.2%.

With `O=C(O)/C=C/c1ccc(N=Nc2c(S(=O)(=O)O)cc3cc(Nc4c(Nc5ccc6c(O)c(N=Nc7ccc(/C=C/C(=O)O)cc7)c(S(=O)(=O)O)cc6c5)c(=O)c4=O)ccc3c2O)cc1` [Compound 185], the remaining activity at 10 µM was determined as 0.6%.

Consider `Cc1cc2nc(N=Nc3c(S(=O)(=O)O)cc4cc(NC(=O)c5ccc(C(=O)Nc6ccc7c(O)c(N=Nc8nc9cc(C)c(C)cc9[nH]8)c(S(=O)(=O)O)cc7c6)cc5)ccc4c3O)[nH]c2cc1C` [Compound 183], for which the remaining activity at 10 µM came out at 36%.

Take `O=C(Nc1ccc2c(c1)C(=O)c1ccccc1C2=O)Nc1ccc2c(O)cc(S(=O)(=O)O)cc2c1` [Compound 15]: the remaining activity at 10 µM came out at 88%.

On to `O=C(Nc1ccc2c(O)cc(S(=O)(=O)O)cc2c1)Nc1ccc2cc(S(=O)(=O)O)cc(S(=O)(=O)O)c2c1` [Compound 8], for which the remaining activity at 10 µM was found to be 83%.

With `O=C(Nc1ccc2c(O)cc(S(=O)(=O)O)cc2c1)c1ccccc1` [Compound 21], the remaining activity at 10 µM is 108%.

As to `O=C(Nc1ccc2cc(S(=O)(=O)O)cc(S(=O)(=O)O)c2c1)Nc1ccc2cc(S(=O)(=O)O)cc(S(=O)(=O)O)c2c1` [Compound 78], the remaining activity at 10 µM was 80%.

In the case of `O=C(O)c1cccc(N=Nc2c(S(=O)(=O)O)cc3cc(NC(=O)c4cc(O)cc(C(=O)Nc5ccc6c(O)c(N=Nc7cccc(C(=O)O)c7)c(S(=O)(=O)O)cc6c5)n4)ccc3c2O)c1` [Compound 150], the remaining activity at 10 µM stood at 0.6%.

`O=C(O)Cc1ccc(N=Nc2c(S(=O)(=O)O)cc3cc(NC(=O)c4ccc(C(=O)Nc5ccc6c(O)c(N=Nc7ccc(CC(=O)O)cc7)c(S(=O)(=O)O)cc6c5)cc4)ccc3c2O)cc1` [Compound 163]: the remaining activity at 10 µM was determined as 0.1%.

Regarding `COc1cc(N=Nc2c(S(=O)(=O)O)cc3cc(NC(=O)c4ccc(C(=O)Nc5ccc6c(O)c(N=Nc7cc(OC)c(OC)cc7C(=O)O)c(S(=O)(=O)O)cc6c5)cc4)ccc3c2O)c(C(=O)O)cc1OC` [Compound 179], the remaining activity at 10 µM was 7.5%.

As for `O=C(Nc1ccc2c(O)c(N=Nc3cc(F)c(F)c(C(=O)O)c3F)c(S(=O)(=O)O)cc2c1)c1ccc(C(=O)Nc2ccc3c(O)c(N=Nc4cc(F)c(F)c(C(=O)O)c4F)c(S(=O)(=O)O)cc3c2)cc1` [Compound 171], the remaining activity at 10 µM was determined as 0.15%.

In the case of `O=C(Nc1ccc2c(O)cc(S(=O)(=O)O)cc2c1)Nc1cccc2c1C(=O)c1ccccc1C2=O` [Compound 20], the remaining activity at 10 µM came to 86%.

Regarding `O=C(O)c1cccc(N=Nc2c(S(=O)(=O)O)cc3cc(Nc4c(Nc5ccc6c(O)c(N=Nc7cccc(C(=O)O)c7)c(S(=O)(=O)O)cc6c5)c(=O)c4=O)ccc3c2O)c1` [Compound 190], the remaining activity at 10 µM worked out at 0.5%.

With `O=C(Nc1ccc2c(O)cc(S(=O)(=O)O)cc2c1)c1ccc(C(=O)Nc2ccc3c(O)cc(S(=O)(=O)O)cc3c2)cc1` [Compound 160], the remaining activity at 10 µM stood at 74%.

For the compound `O=C(O)c1ccc(C(=O)O)c(N=Nc2c(S(=O)(=O)O)cc3cc(NC(=O)c4ccc(C(=O)Nc5ccc6c(O)c(N=Nc7cc(C(=O)O)ccc7C(=O)O)c(S(=O)(=O)O)cc6c5)cc4)ccc3c2O)c1` [Compound 173], the remaining activity at 10 µM worked out at 27%.

As for `COc1cc(N=Nc2c(S(=O)(=O)O)cc3cc(NC(=O)c4cccc(C(=O)Nc5ccc6c(O)c(N=Nc7cc(OC)c(OC)c(OC)c7C(=O)O)c(S(=O)(=O)O)cc6c5)n4)ccc3c2O)c(C(=O)O)c(OC)c1OC` [Compound 128], the remaining activity at 10 µM came to 5%.

Turning to `O=C(Nc1ccc2ccc(S(=O)(=O)O)cc2c1)Nc1ccc2ccc(S(=O)(=O)O)cc2c1` [Compound 80], the remaining activity at 10 µM turned out to be 84%.

As to `O=C(O)c1ccc(N=Nc2c(S(=O)(=O)O)cc3cc(Nc4c(Nc5ccc6c(O)c(N=Nc7ccc(C(=O)O)cc7)c(S(=O)(=O)O)cc6c5)c(=O)c4=O)ccc3c2O)cc1` [Compound 186], the remaining activity at 10 µM came out at 0.5%.

As for `O=C(Nc1ccc(S(=O)(=O)O)c2ccccc12)Nc1ccc(S(=O)(=O)O)c2ccccc12` [Compound 79], the remaining activity at 10 µM is 78%.

Regarding `O=C(Nc1ccc2cc(S(=O)(=O)O)ccc2c1)Nc1ccc2cc(S(=O)(=O)O)ccc2c1` [Compound 82], the remaining activity at 10 µM was found to be 92%.

Still in this experiment, the particulars now being: 0.05 h, read-out: % RT activity remaining at 10 μM.
As for `O=C(NC(=O)Oc1ccccc1)Nc1ccc2cc(S(=O)(=O)O)cc(O)c2c1` [Compound 30], the remaining activity at 10 µM turned out to be 87%.

Staying with this experiment, now noted: read-out: IC50 (RT activity).
One may read the IC50 as the concentration that inhibits the measured activity by half. Take `O=C(Nc1ccc2c(O)c(N=Nc3ccc(-c4nnn[nH]4)cc3)c(S(=O)(=O)O)cc2c1)Nc1ccc2c(O)c(N=Nc3ccc(-c4nnn[nH]4)cc3)c(S(=O)(=O)O)cc2c1` [Compound 159]: the half-inhibitory concentration (IC50) worked out at 220 nM.

Regarding `O=C(O)c1c(F)c(F)c(N=Nc2c(S(=O)(=O)O)cc3cc(Nc4c(Nc5ccc6c(O)c(N=Nc7c(F)c(F)c(C(=O)O)c(F)c7F)c(S(=O)(=O)O)cc6c5)c(=O)c4=O)ccc3c2O)c(F)c1F` [Compound 194], the IC50 was found to be 440 nM.
